Source: patent US9295190B2, “Seed treatment composition” (DSM IP ASSETS B.V., priority 2011, dated 2016)

Tests used:
[1] = system: Watermelon (Citrullus lanatus) seeds; experiment: Germination of coated watermelon seeds in cocopeat; format: in vivo
Excerpt: Watermelon (Citrullus lanatus) seeds were untreated or coated with a composition comprising 1.5 gram polyvinylpyrrolidone and 9 gram natamycin product (i.e. Delvocid®, a product comprising 50% (w/w) natamycin) per kg of seed. This composition was applied as described in Example 10.
(§1) Subsequently, the seeds were germinated in trays of sterile, buffered (i.e. with calcium nitrate to pH of 6.7) cocopeat, which is a stable growth medium commonly used and accepted for e.g. simulation of seed germination in the horticultural industry. The 50 seeds planted per treatment were subjected to an ambient temperature of minimally 1.4° C. during night time and maximally 26.9° C. during day time (average temperature 13.6° C.) for 19 days and continuously irrigated to field capacity. The average relative humidity during the trial was 72%. During the trial, the trays with cocopeat were irrigated 3 to 5 times per day. The trays were perforated at the bottom leading to direct removal of excess water. This way, the cocopeat could be kept at field capacity. After 15, 17 and 19 days, the germination percentage was determined according to ISTA standards (see Handbook International Rules for Seed Testing, Edition 2011, Chapter 5, pages 5-32, published by the International Seed Testing Association, Switzerland).

[2] = system: Tomato (Solanum lycopersicum) seeds; experiment: Germination of drum primed, encrusted tomato seeds; format: in vivo; details: after both 10 and 19 days of incubation
Method: as §1
Tomato (Solanum lycopersicum) seeds were primed (i.e. brought to same germination level) using drum priming. Subsequently, the primed tomato seeds were either not treated further or encrusted with composition 6 of Table 1 according to the method as described in Example 1. […] After 10 and 19 days, the germination percentage was determined using the ISTA method described in Example 11.

**Q.** Which “Germination percentage in excess of the untreated seeds” value ([1]; after 15 days of incubation) does the source give for `C[C@@H]1C/C=C/C=C/C=C/C=C/[C@H](O[C@@H]2O[C@H](C)[C@@H](O)[C@H](N)[C@@H]2O)C[C@@H]2O[C@](O)(C[C@@H](O)C[C@H]3O[C@@H]3/C=C/C(=O)O1)C[C@H](O)[C@H]2C(=O)O` [natamycin] here?
**A.** Its value is 18%.

**Q.** And the “Germination percentage in excess of the untreated seeds” value ([1]; after 17 days of incubation)?
**A.** Its value is 34%.

**Q.** And the “Germination percentage in excess of the untreated seeds” value ([1]; after 19 days of incubation)?
**A.** Its value is 38%.

**Q.** And the “Germination percentage in excess of the control seeds” value [2]?
**A.** Its value is 10%.
